Data on 27 compounds can be found in patent US20170253607A1, “LONG-ACTING HIV PROTEASE INHIBITOR” (Shionogi & Co., Ltd., priority 2014, published 2017).

A value given as a limit tells only on which side of the number the result lay.

Data set [1] concerns the target HIV-1 PR (Human immunodeficiency virus type 1 group M subtype B, UniProt P04585). Kind of data set: HIV-protease inhibitory activity assay (FRET peptide substrate). The data set is classed as biochemical. The conditions noted are these: Test Example 1. Summed up:
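Compounds were preincubated with HIV-1 PR (0.83 ng) at room temperature in pH 4.8 NaAc buffer (0.5 M NaCl, EDTA, DTT, Tween 20), then HiLyte Fluor 488/QXL 520 FRET peptide (2 μmol/L final) was added for 60 min. Fluorescence was read at 485/535 nm, and IC50 was fitted by four-parameter logistic regression.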

Data set [2] is described as follows: Protein binding test (equilibrium dialysis, unbound ratio fu in serum). The conditions noted are these: rat serum, equilibrium dialysis 24 hours, 37° C., 2 μg/mL. Type of data set: in vitro ADME. The protocol:
Assay condition: Evaluation method; Equilibrium dialysis method, Reaction time; 24 hours, Reaction temperature; 37° C., Assay concentration; 2 μg/mL A solution of the compound was added to each serum and mixed to prepare the serum samples with above concentration. The serum sample was put into one side of an equilibrium dialysis apparatus with dialysis membrane and phosphate buffered saline (PBS) was also put to another side of the apparatus. The apparatus was incubated at 37° C. for 24 hours. After incubation, the serum and PBS samples were collected and the compound concentrations in both samples were measured by LC/MS/MS. Fu was calculated by dividing the concentration in PBS by the concentration in the serum.
(In general: In equilibrium dialysis free small molecules cross a membrane that holds back macromolecules.)

The nature of data set [3]: Evaluation of total body clearance (CLtot), intravenous administration. Type of data set: in vivo, Sprague-Dawley (SD). The conditions noted are these: rat (SD), intravenous administration 0.5-10 mg/kg; CLtot = dose/AUC. In short, it runs like this: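 Compounds given as a single tail-vein injection at 0.5-10 mg/kg (n=2-3), dose varying by compound. Plasma sampled at scheduled times and measured by LC/MS/MS; CLtot derived as dose divided by AUC from pharmacokinetic analysis.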

In general, IC50 refers to the concentration at which inhibition is half-maximal. The low end stands for greater potency in that assay, the high end for weaker potency in that assay.

For `COc1ccc(S(=O)(=O)N(CC(C)C)C[C@@H](O)[C@H](Cc2ccc(OCc3ccccc3-c3sc4c(c3C(=O)O)CCCC4=O)cc2)NC(=O)O[C@H]2CO[C@@]3(C)OCC[C@@H]23)cc1` [Compound I-2], in data set [1], the midpoint of inhibition, the IC50, lay at 1.05 nM. The rat_fu in data set [2] is on record as <0.1%. Also, in data set [3], the rat_CLt is recorded as 5.11 mL/min/kg.
For `COc1ccc(S(=O)(=O)N(CC(C)C)C[C@@H](O)[C@H](Cc2ccc(O[C@@H]3CCN(c4ccccc4-c4sc5c(c4C(=O)O)CC(C)(C)CC5)C3)cc2)NC(=O)O[C@H]2CO[C@@]3(C)OCC[C@@H]23)cc1` [Compound I-6] the same measures were 1.36 nM, <0.1% and 1.22 mL/min/kg.
The compound `COc1ccc(S(=O)(=O)N(CC(C)C)C[C@@H](O)[C@H](Cc2ccc(OC(C)(C)C(=O)Nc3sc4c(c3C(=O)O)CC(C)(C)CC4)cc2)NC(=O)O[C@H]2CO[C@@]3(C)OCC[C@@H]23)cc1` [Compound I-7] returned a concentration for half-maximal inhibition (IC50) in data set [1] of 2.31 nM. Also, in data set [2], the rat_fu is on record as <0.1%. In data set [3], this compound displayed a rat_CLt of 0.238 mL/min/kg.
`COc1ccc(S(=O)(=O)N(CC(C)C)C[C@@H](O)[C@H](Cc2ccc(CCc3sc4c(c3C(=O)O)CC(C)(C)CC4)cc2)NC(=O)O[C@H]2CO[C@@]3(C)OCC[C@@H]23)cc1` [Compound I-12] had a half-inhibitory concentration (IC50) in data set [1] of 1.82 nM. Besides, the rat_fu in data set [2] was <0.1%. The same compound yielded a rat_CLt in data set [3] of 2.9 mL/min/kg.
For `CC(C)CN(C[C@@H](O)[C@H](Cc1ccc(CCc2sc3c(c2C(=O)O)CC(C)(C)CC3)cc1)NC(=O)O[C@H]1CO[C@@]2(C)OCC[C@@H]12)S(=O)(=O)c1ccc2nc(N)sc2c1` [Compound I-15] the same measures were 2.27 nM, <0.1% and 4.86 mL/min/kg.
With `COc1ccc(S(=O)(=O)N(CC(C)C)CC(O)C(Cc2ccc(OCc3ccccc3-c3sc4c(c3C(=O)O)CC(C)(C)CC4)cc2)NC(=O)OC2CC3OCC(O)C3C2)cc1` (stereo not drawn) [Compound I-29], in data set [1], it took 1.41 nM to reach half-maximal inhibition (IC50). Besides, the rat_fu in data set [2] is given as <0.1%. The compound further showed a rat_CLt in data set [3] of 1.54 mL/min/kg.
`COc1ccc(S(=O)(=O)N(CC(C)C)C[C@@H](O)[C@H](Cc2ccc(OCc3ccccc3-c3sc4c(c3C(=O)O)CC(C)(C)CC4)cc2)NC(=O)[C@H](CC(N)=O)NC(=O)c2ccc3ccccc3n2)cc1` [Compound I-30]: the IC50 in data set [1] is 3.67 nM. Also, the rat_fu in data set [2] is given as <0.1%. This compound also gave a rat_CLt in data set [3] of 1.52 mL/min/kg.
As to `CC(C)CN(CC(O)C(Cc1ccc(CCc2sc3c(c2C(=O)O)CC(C)(C)CC3)cc1)NC(=O)OC1COC2(C)OCCC12)S(=O)(=O)c1ccc(N)cc1` (stereo not drawn) [Compound I-43], the IC50 in data set [1] is 2 nM. Also, in data set [2], the rat_fu was <0.1%. This compound came in with a rat_CLt in data set [3] of 3.19 mL/min/kg.
On the same counts, the results for `COc1ccc(S(=O)(=O)N(CC(C)C)CC(O)C(Cc2ccc(OCc3ncccc3-c3ccc(-c4sc5c(c4C(=O)O)CC(C)(C)CC5)cc3)cc2)NC(=O)OC2COC3(C)OCCC23)cc1` (stereo not drawn) [Compound I-44] are 1.09 nM, <0.1% and 0.535 mL/min/kg.
On to `COc1ccc(S(=O)(=O)N(CC(C)C)CC(O)C(Cc2ccc(N(Cc3ccccc3)Cc3sc4c(c3C(=O)O)CC(C)(C)CC4)cc2)NC(=O)OC2COC3(C)OCCC23)cc1` (stereo not drawn) [Compound I-47], for which it took 5.41 nM to reach half-maximal inhibition in data set [1] (IC50). For the same compound, in data set [2], the rat_fu was <0.1%. In addition, the rat_CLt in data set [3] is 3.51 mL/min/kg.
`COc1ccc(S(=O)(=O)N(CC(C)C)CC(O)C(Cc2ccc(OCc3ccccc3-c3oc4c(c3C(=O)O)CC(C)(C)CC4)cc2)NC(=O)OC2COC3(C)OCCC23)cc1` (stereo not drawn) [Compound I-49] showed an IC50 in data set [1] of 2.5 nM. Further, in data set [2], the rat_fu was <0.1%. Further, the rat_CLt in data set [3] worked out at 2.23 mL/min/kg.
The compound `CC(C)CN(CC(O)C(Cc1ccc(OCc2ccccc2-c2sc3c(c2C(=O)O)CC(C)(C)CC3)cc1)NC(=O)OC1COC2(C)OCCC12)S(=O)(=O)c1ccc2nc(N)sc2c1` (stereo not drawn) [Compound I-51] came in with an IC50 in data set [1] of 2.65 nM. Further, the rat_fu in data set [2] is <0.1%. In data set [3], this compound showed a rat_CLt of 1.47 mL/min/kg.
As for `COc1ccc(S(=O)(=O)N(CC(C)C)CC(O)C(Cc2ccc(OCc3ccccc3-c3sc4c(c3C(=O)O)CC(C)(C)CC4)cc2)NC(=O)OC2COC3(C)OCC(OCc4ccccc4)C23)cc1` (stereo not drawn) [Compound I-55], the IC50 in data set [1] stood at 7.34 nM. For the same compound, in data set [2], the rat_fu is recorded as <0.1%. The same compound had a rat_CLt in data set [3] of 0.752 mL/min/kg.
With `COc1ccc(S(=O)(=O)N(CC(C)C)CC(O)C(Cc2ccc(OCc3ccccc3-c3sc(N(C4CCCCC4)C4CCCCC4)nc3C(=O)O)cc2)NC(=O)OC2COC3(C)OCCC23)cc1` (stereo not drawn) [Compound I-74], in data set [1], 1.71 nM corresponded to half-maximal inhibition (IC50). Also, the rat_fu in data set [2] is reported as <0.1%. The same compound showed a rat_CLt in data set [3] of 3.88 mL/min/kg.
Take `COc1ccc(S(=O)(=O)N(CC(C)C)CC(O)C(Cc2ccc(OCc3cc(C#N)ccc3-c3sc4c(c3C(=O)O)CC(C)(C)CC4)cc2)NC(=O)OC2COC3(C)OCCC23)cc1` (stereo not drawn) [Compound I-79]: the IC50 in data set [1] turned out to be 1.74 nM. Further, the rat_fu in data set [2] is given as <0.1%. The same compound gave a rat_CLt in data set [3] of 3.15 mL/min/kg.
As to `COc1ccc(S(=O)(=O)N(CC(C)C)CC(O)C(Cc2ccc(OCc3ncccc3-c3sc4c(c3C(=O)O)CC(C)(C)CC4)cc2)NC(=O)OC2COC3(C)OCCC23)cc1` (stereo not drawn) [Compound I-88], half-maximal inhibition in data set [1] (IC50) required 0.86 nM. The rat_fu in data set [2] is listed as <0.1%. This compound also registered a rat_CLt in data set [3] of 2.5 mL/min/kg.
Turning to `COc1ccc(S(=O)(=O)N(CC(C)C)CC(O)C(Cc2ccc(OCc3ncc(Cl)cc3-c3sc4c(c3C(=O)O)CC(C)(C)CC4)cc2)NC(=O)OC2COC3(C)OCCC23)cc1` (stereo not drawn) [Compound I-93], the IC50 in data set [1] was 0.99 nM. In addition, the rat_fu in data set [2] is reported as <0.1%. The same compound returned a rat_CLt in data set [3] of 2.22 mL/min/kg.
On the same counts, the results for `COc1ccc(S(=O)(=O)N(CC(C)C)CC(O)C(Cc2ccc(OCc3ccccc3-c3sc4c(c3C(=O)O)CC(C)(C)CC4)cc2)NC(=O)OC2COC3(CO)OCCC23)cc1` (stereo not drawn) [Compound I-99] are 0.81 nM, <0.1% and 0.576 mL/min/kg.
`COc1ccc(S(=O)(=O)N(CC(C)C)CC(O)C(Cc2ccc(OC3CCCN(c4ccccc4-c4sc5c(c4C(=O)O)CC(C)(C)CC5)C3)cc2)NC(=O)OC2COC3(C)OCCC23)cc1` (stereo not drawn) [Compound I-102] showed an IC50 in data set [1] of 3.83 nM. Moreover, the rat_fu in data set [2] is on record as <0.1%. This compound displayed a rat_CLt in data set [3] of 4.24 mL/min/kg.
The compound `COc1ccc(S(=O)(=O)N(CC(C)C)CC(O)C(Cc2ccc(CCc3sc4c(c3C(=O)O)CC(C)(C)CC4(C)C)cc2)NC(=O)OC2COC3(C)OCCC23)cc1` (stereo not drawn) [Compound I-105] gave an IC50 in data set [1] of 2.42 nM. For the same compound, in data set [2], the rat_fu is <0.1%. Moreover, the rat_CLt in data set [3] is 2.29 mL/min/kg.
Regarding `CC(C)CN(CC(O)C(Cc1ccc(CCc2sc3c(c2C(=O)O)CC(C)(C)CC3)cc1)NC(=O)OC1COC2(C)OCCC12)S(=O)(=O)c1ccc2c(c1)OCO2` (stereo not drawn) [Compound I-106], the midpoint of inhibition in data set [1], the IC50, lay at 2.57 nM. In addition, in data set [2], the rat_fu is on record as <0.1%. The compound also yielded a rat_CLt in data set [3] of 3.49 mL/min/kg.
For `COc1ccc(S(=O)(=O)N(CC(C)C)CC(O)C(Cc2ccc(OCc3ccccc3-c3sc4c(c3C(=O)O)CC(C)(C)CC4(C)C)cc2)NC(=O)OC2COC3(C)OCCC23)cc1` (stereo not drawn) [Compound I-113], in data set [1], the IC50 was 1.84 nM. The rat_fu in data set [2] is <0.1%. This compound also returned a rat_CLt in data set [3] of 1.18 mL/min/kg.
As to `CC(C)CN(CC(O)C(Cc1ccc(OCc2ccccc2-c2sc3c(c2C(=O)O)CC(C)(C)CC3(C)C)cc1)NC(=O)OC1COC2(C)OCCC12)S(=O)(=O)c1ccc2ncsc2c1` (stereo not drawn) [Compound I-119], the half-inhibitory concentration (IC50) in data set [1] came to 1.23 nM. Also, the rat_fu in data set [2] was <0.1%. Further, in data set [3], the rat_CLt is given as 2.29 mL/min/kg.
In data set [1], `CC(C)CN(CC(O)C(Cc1ccc(OCc2ccccc2-c2sc3c(c2C(=O)O)CC(C)(C)CC3)cc1)NC(=O)OC1COC2(C)OCCC12)S(=O)(=O)c1ccc2nc(O)sc2c1` (stereo not drawn) [Compound I-131] returned an IC50 of 2.12 nM. For the same compound, the rat_fu in data set [2] is reported as <0.1%. In data set [3], this compound displayed a rat_CLt of 2.27 mL/min/kg.
For `CC(C)CN(CC(O)C(Cc1ccc(OCc2ccccc2-c2sc3c(c2C(=O)O)CC(C)(C)CC3)cc1)NC(=O)OC1COC2(C)OCCC12)S(=O)(=O)c1ccc2c(c1)OCO2` (stereo not drawn) [Compound I-132] the same measures were 2.66 nM, <0.1% and 0.376 mL/min/kg.
`COc1ccc(S(=O)(=O)N(CC(C)C)CC(O)C(Cc2ccc(Oc3ccc(C)c(-c4sc5c(c4C(=O)O)CC(C)(C)CC5)c3)cc2)NC(=O)OC2COC3(C)OCCC23)cc1` (stereo not drawn) [Compound I-134]: in data set [1], the IC50 turned out to be 2.04 nM. Also, the rat_fu in data set [2] is recorded as <0.1%. In data set [3], this compound gave a rat_CLt of 3.92 mL/min/kg.
`Cc1cc(Oc2ccc(CC(NC(=O)OC3COC4(C)OCCC34)C(O)CN(CC(C)C)S(=O)(=O)c3ccc4ncsc4c3)cc2)ccc1-c1sc2c(c1C(=O)O)CC(C)(C)CC2` (stereo not drawn) [Compound I-138] gave an IC50 in data set [1] of 2.66 nM. Besides, the rat_fu in data set [2] is listed as <0.1%. The compound further registered a rat_CLt in data set [3] of 1.6 mL/min/kg.
